# Values of other authors as cited in patent US11779591B2, “Compositions containing decitabine, 5azacytidine and tetrahydrouridine and uses thereof” (Epidestiny, Inc., priority 2015, dated 2023).
# Settings: rapid deamination by CDA
smiles,measurement,value
"Nc1ccn([C@@H]2O[C@H](CO)[C@@H](O)[C@@H]2[18F])c(=O)n1 [FAC, 1-(2′-deoxy-2′-[18F]-fluoro-β-D-arabinofuranosyl)cytosine]",distribution into solid tissues such as the liver and kidneys,did not adequately distribute into solid tissues
